# Measurements published in patent publication US20090325877A1, “Combination Product of Receptor Tyrosine Kinase Inhibitor and Fatty Acid Synthase Inhibitor for Treating Cancer” (Wyeth, priority 2008, published 2009).
# Read-outs that look alike come from different tables or passages of the source.
# B1: matuzumab: Humanized mAb; EGFR (antibody, chains of the INN, looked up, V domains shown)
# VH: QVQLVQSGAEVKKPGASVKVSCKASGYTFTSHWMHWVRQAPGQGLEWIGEFNPSNGRTNYNEKFKSKATMTVDTSTNTAYMELSSLRSEDTAVYYCASRDYDYDGRYFDYWGQGTLVTVSS
# VL: DIQMTQSPSSLSASVGDRVTITCSASSSVTYMYWYQQKPGKAPKLLIYDTSNLASGVPSRFSGSGSGTDYTFTISSLQPEDIATYYCQQWSSHIFTFGQGTKVEIK
# Experiments:
# FASN mRNA [1] = assay: FASN mRNA expression by qRT-PCR in A2780 cells; assay type: cell-based, human; details: b102: within three days, pelitinib at doses as low as 3 μM
# From the text: (§1) RNA was extracted from the cells using TRI-REAGENT™ (Molecular Research Center, Cincinnati, Ohio) and subjected to reverse transcription—polymerase chain reaction (“RT-PCR”) using the TITAN ONE TUBE RT-PCR KIT™ system (Hoffmann-La Roche). Primers were: EGFR: 5′-[…]-3′ (SEQ ID NO:1) (forward, E1S) 5′-[…]-3′ (SEQ ID NO:2) (reverse, E1A); ErbB-2: 5′-[…]-3′ (SEQ ID NO:3) (forward, E2S2), 5′-[…]-3′ (SEQ ID NO:4) (reverse, E2A2); GAPDH: 5′-[…]-3′ (SEQ ID NO:5) (forward, GAPDH3S), 5′-[…]-3′ (SEQ ID NO:6) (reverse, GAPDH3A). Conditions for reverse transcription and amplification of the EGFR coding sequence were: 50° C., 30 minutes; 94° C., 2 minutes; 10 cycles (94° C., 30 seconds; 64.9° C., 30 seconds; 68° C., 90 seconds); 30 cycles (94° C., 30 seconds; 64.9° C., 30 seconds; 68° C., 90 seconds +5 seconds autoextension) and 68° C., 7 minutes. Conditions for ErbB2 and GAPDH were: 50° C., 30 minutes; 94° C., 2 minutes; 10 cycles (94° C., 30 seconds; 51° C., 30 seconds; 68° C., 45 seconds); 25 cycles (94° C., 30 seconds; 51° C., 30 seconds; 68° C., 45 seconds +5 seconds autoextension) and 68° C., 7 minutes. DNA products had the following sizes: EGFR: 1452 bp, ErbB2: 900 bp, GAPDH: 488 bp. Fragments were electrophoresed and stained with ethidium bromide.
# (§2) Quantitative RT-PCR (“qRT-PCR”) was performed in the ABI PRISM 7000™ Sequence Detector (Applied Biosystems, Foster City, Calif.) using human EGFR, ErbB2, and FASN TaqMan® Gene Expression Assay systems (Applied Biosystems; Assay IDs: Hs00193306_m1, Hs00170433_m1, Hs00188012_m1) according to the manufacturer's instructions. β-actin and GAPDH (VIC™ and FAM labeled pre-developed TaqMan® Assay reagents, Applied Biosystems) were used as endogenous controls. EGFR, ErbB2, and FASN mRNA expression were calculated as described previously (Grunt, ibid).
# [2] = test system: SKOV3 ovarian cancer cells; assay: Formazan dye (MTT) in-vitro cell growth assay, SKOV3; assay type: cell-based; details: for in vitro growth inhibition (in words): MTT assay, single drug
# Description: Cells were plated at 0.5−5×10^3/well in 96-well plates. After adhesion, media ±drugs alone or in combination were added. Cell numbers were estimated after 3-5 days by using a colorimetric formazan dye assay (Biomedica, Vienna, Austria). […] Statistical analysis of data from drug combination treatment experiments was performed using one-factorial ANOVA followed by Scheffe-test.
# (§3) Yellow MTT (3-(4,5-Dimethylthiazol-2-yl)-2,5-diphenyltetrazolium bromide, a tetrazole) is reduced to purple formazan in the mitochondria of living cells (see Mosmann, T., J. Immunol. Methods, 65(1-2): 55-63, 1983).
# FASN protein [3] = assay: FASN protein level by Western blotting in A2780 cells; assay type: cell-based; details: b102: within three days, pelitinib at doses as low as 3 μM
# [4] = test system: A2780 ovarian cancer cells; assay: Formazan dye (MTT) in-vitro cell growth assay, A2780; assay type: cell-based; details: for in vitro growth inhibition (in words): A2780, MTT assay, single drug
# Description: Effect of FAS and ErbB inhibition on A2780 ovarian cancer cells (OCC). […] Cells were grown for three days in the presence of vehicle (0.1% DMSO) or synthetic inhibitor before cell number was estimated. Data in the charts represent means +/−SD of triplicate measurements.
# Cells were plated at 0.5−5×10^3/well in 96-well plates. After adhesion, media ±drugs alone or in combination were added. Cell numbers were estimated after 3-5 days by using a colorimetric formazan dye assay (Biomedica, Vienna, Austria). Results (mean±SD, n=3) were expressed in percent of untreated (solvent) control. Statistical analysis of data from drug combination treatment experiments was performed using one-factorial ANOVA followed by Scheffe-test.
# as §3
# FASN mRNA [5] = assay: FASN mRNA levels in SKOV3 cells; assay type: cell-based, human
# From the text: RNA was extracted from the cells using TRI-REAGENT™ (Molecular Research Center, Cincinnati, Ohio) and subjected to reverse transcription—polymerase chain reaction (“RT-PCR”) using the TITAN ONE TUBE RT-PCR KIT™ system (Hoffmann-La Roche). Primers were: EGFR: 5′-[…]-3′ (SEQ ID NO:1) (forward, E1S) 5′-[…]-3′ (SEQ ID NO:2) (reverse, E1A); ErbB-2: 5′-[…]-3′ (SEQ ID NO:3) (forward, E2S2), 5′-[…]-3′ (SEQ ID NO:4) (reverse, E2A2); GAPDH: 5′-[…]-3′ (SEQ ID NO:5) (forward, GAPDH3S), 5′-[…]-3′ (SEQ ID NO:6) (reverse, GAPDH3A). Conditions for reverse transcription and amplification of the EGFR coding sequence were: 50° C., 30 minutes; 94° C., 2 minutes; 10 cycles (94° C., 30 seconds; 64.9° C., 30 seconds; 68° C., 90 seconds); 30 cycles (94° C., 30 seconds; 64.9° C., 30 seconds; 68° C., 90 seconds +5 seconds autoextension) and 68° C., 7 minutes. […]
# as §2
# FASN protein [6] = assay: FASN protein levels by Western blotting in SKOV3 cells; assay type: cell-based
# Description: Cells plated in culture media containing 5% fetal calf serum at a density of 2.6×10^5 (SKOV3) or 6×10^5 (A2780) in 60 mm dishes (Corning, Corning, N.Y.) were treated with FASN inhibitor C75, with small-molecule ErbB RTK inhibitors (RTKIs), with the MEK1/2 antagonist U0126 or with the PI3K inhibitor LY294002 for the indicated times and at various concentrations. In some experiments cells were stimulated for 5 or 10 min with 100 ng/ml EGF (Sigma) before lysis in RIPA buffer (Grunt et al., Biochem Biophys Res Commun 329:1253-1259, 2005). Proteins (20 μg/lane) were subjected to SDS-PAGE, blotted onto PVDF membranes and immunostained (see Grunt, ibid) using the following antibodies: 2 μg/ml goat anti-pEGFR(Tyr1173) (sc-12351), 1 μg/ml rabbit anti-ErbB2 (C-18) (sc-284), 1 μg/ml rabbit anti-pErbB2(Tyr1248) (sc-12352-R) (all from Santa Cruz Biotechnology Inc., Santa Cruz, Calif.), rabbit anti-EGFR 1:1,000 (2232), rabbit anti-AKT 1:1,000 (9272), rabbit anti-pAKT(Ser473) 1:1,000 (9271), rabbit anti-pAKT(Thr308) 1:1,000 (9275), rabbit anti-pERK1/2(Thr202/Tyr204) 1:1,000 (9101) (all from Cell Signaling Technology), rabbit anti-ERK1/2 1:3,000 (06-182, Upstate Biotechnology Inc., Lake Placid, N.Y.), 0.5 μg/ml mouse monoclonal anti-FASN (610963, BD Biosciences, San Jose, Calif.), or 0.67 μg/ml goat anti-human actin (1-19, sc-1616, Santa Cruz Biotechnology). […]
# ErbB2 mRNA = ErbB2 mRNA by RT-PCR and qRT-PCR in A2780 cells; assay type: cell-based, human
# From the text: as §1, §2
# EGFR protein = EGFR protein and tyrosine phosphorylation by Western blot in A2780 cells; assay type: cell-based
# ErbB2 protein = assay: Total and phosphorylated ErbB2 protein by Western blot in A2780 cells; assay type: cell-based
# Description: Cells plated in culture media containing 5% fetal calf serum at a density of 2.6×10^5 (SKOV3) or 6×10^5 (A2780) in 60 mm dishes (Corning, Corning, N.Y.) were treated with FASN inhibitor C75, with small-molecule ErbB RTK inhibitors (RTKIs), with the MEK1/2 antagonist U0126 or with the PI3K inhibitor LY294002 for the indicated times and at various concentrations. In some experiments cells were stimulated for 5 or 10 min with 100 ng/ml EGF (Sigma) before lysis in RIPA buffer (Grunt et al., Biochem Biophys Res Commun 329:1253-1259, 2005). Proteins (20 μg/lane) were subjected to SDS-PAGE, blotted onto PVDF membranes and immunostained (see Grunt, ibid) using the following antibodies: 2 μg/ml goat anti-pEGFR(Tyr1173) (sc-12351), 1 μg/ml rabbit anti-ErbB2 (C-18) (sc-284), 1 μg/ml rabbit anti-pErbB2(Tyr1248) (sc-12352-R) (all from Santa Cruz Biotechnology Inc., Santa Cruz, Calif.), rabbit anti-EGFR 1:1,000 (2232), rabbit anti-AKT 1:1,000 (9272), rabbit anti-pAKT(Ser473) 1:1,000 (9271), rabbit anti-pAKT(Thr308) 1:1,000 (9275), rabbit anti-pERK1/2(Thr202/Tyr204) 1:1,000 (9101) (all from Cell Signaling Technology), rabbit anti-ERK1/2 1:3,000 (06-182, Upstate Biotechnology Inc., Lake Placid, N.Y.), 0.5 μg/ml mouse monoclonal anti-FASN (610963, BD Biosciences, San Jose, Calif.), or 0.67 μg/ml goat anti-human actin (1-19, sc-1616, Santa Cruz Biotechnology). Secondary antibodies were peroxidase-tagged donkey-anti-rabbit IgG (V795A, Promega, Madison, Wis.) or donkey-anti-goat IgG (sc-2020, Santa Cruz Biotechnology) at 1:15,000, respectively, or chicken anti-mouse IgG (sc-2954, Santa Cruz Biotechnology) at 1:10,000. Detection was performed by enhanced chemiluminescence.
# EGFR mRNA = EGFR mRNA by RT-PCR and qRT-PCR in A2780 cells; assay type: cell-based, human
# Description: RNA was extracted from the cells using TRI-REAGENT™ (Molecular Research Center, Cincinnati, Ohio) and subjected to reverse transcription—polymerase chain reaction (“RT-PCR”) using the TITAN ONE TUBE RT-PCR KIT™ system (Hoffmann-La Roche). […] Conditions for ErbB2 and GAPDH were: 50° C., 30 minutes; 94° C., 2 minutes; 10 cycles (94° C., 30 seconds; 51° C., 30 seconds; 68° C., 45 seconds); 25 cycles (94° C., 30 seconds; 51° C., 30 seconds; 68° C., 45 seconds +5 seconds autoextension) and 68° C., 7 minutes. […] Fragments were electrophoresed and stained with ethidium bromide.
# as §2
Molecule,"FASN mRNA expression, effect in words (FASN mRNA [1])",in vitro growth inhibition (in words) [2],"FASN protein expression, effect in words (FASN protein [3])",in vitro growth inhibition (in words) [4],"ErbB2 mRNA, effect in words (ErbB2 mRNA)","EGFR total protein, effect in words (EGFR protein)","phosphorylated ErbB2 (pErbB2), effect in words (ErbB2 protein)","total ErbB2 protein, effect in words (ErbB2 protein)","EGFR mRNA, effect in words (EGFR mRNA)",other results
C#Cc1cccc(Nc2ncnc3cc(OCCOC)c(OCCOC)cc23)c1 [erlotinib],effect was also seen,does not significantly inhibit growth,effect was also seen,does not significantly inhibit growth,,,,,,
N#CC(=C(/N)Sc1ccccc1N)/C(C#N)=C(\N)Sc1ccccc1N [U0126],,,,,,,,,,"FASN mRNA levels, effect in words (FASN mRNA [5]): does not affect; FASN protein levels, effect in words (FASN protein [6]): does not affect"
C=CC(=O)Nc1cc2c(Nc3ccc(F)c(Cl)c3)ncnc2cc1OCCCN1CCOCC1 [canertinib],effect was also seen,growth inhibitory activity,effect was also seen,growth inhibitory activity,fails to down-regulate,does not diminish,strongly diminishes,slightly attenuates,does not diminish,
"CCOc1cc2ncc(C#N)c(Nc3ccc(F)c(Cl)c3)c2cc1NC(=O)C=CCN(C)C [EKB-569, 4-Dimethylamino-but-2-enoic acid [4-(3-chloro-4-fluoro-phenylamino)-3-cyano-7-ethoxy-quinolin-6-yl]-amide]",represses,growth inhibitory activity,represses,growth inhibitory activity,only weakly depresses,abolishes,abolishes,abolishes,weak dose-dependent repression,"FASN mRNA expression, effect in words (FASN mRNA [1]; listed as pelitinib): abrogated; ErbB2 mRNA, effect in words (ErbB2 mRNA; listed as pelitinib): do not appear to be affected; EGFR tyrosine phosphorylation (activity), effect in words (EGFR protein): dose-dependent reduction; EGFR total protein, effect in words (EGFR protein; listed as pelitinib): dose-dependent down-regulation; EGFR tyrosine phosphorylation (activity), effect in words (EGFR protein; listed as pelitinib): completely abrogates; phosphorylated ErbB2 (pErbB2), effect in words (ErbB2 protein; listed as pelitinib): abrogated; total ErbB2 protein, effect in words (ErbB2 protein; listed as pelitinib): abrogated; FASN protein expression, effect in words (FASN protein [3]; listed as pelitinib): abrogated; IC50 ([4]; Homo sapiens, 72 h, A2780 OCC, each individual inhibitor, 50% reduction of cell growth, three days, n = 3-5, read-out: IC50 (μM) Mean +/− SD): 5.14 µM; EGFR mRNA, effect in words (EGFR mRNA; listed as pelitinib): dose-dependent down-regulation"
B1,,,,,,,,,,growth inhibition ([2]; antibody alone at 20 μg/ml): ~10%
